From US20230382940A1, “ANTIVIRAL COMPOUNDS AND METHODS OF MAKING AND USING THE SAME” (Gilead Sciences, Inc., priority 2022, published 2023) come the findings set out here.

In data set [1] the test system is Human Rhinovirus 1B (HRV1B). As to the kind of experiment: H1-HeLa HRV-CTG 384-well assay, HRV1B, Example X. As to conditions: Rhinovirus A, 96 h, read-out: EC50 H1-HeLa_HRV 1B_HRV-CTG 384-well Assay (per Ex. X). In kind it is cell-based. In short, it runs like this: (§1)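 H1-HeLa cells (5,000/well, DMEM 2% FBS) infected with HRV1B, HRV14 or HRV16 at MOI 0.5, 1.0 and 0.25 respectively, with 10-point 1:3 compound dilutions; 4 days at 37 °C. Viability by CellTiter-Glo luminescence, normalized to rupintrivir and DMSO controls; EC50 by non-linear regression.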

The subject of data set [2] is Human Rhinovirus 16 (HRV16). In words: H1-HeLa HRV-CTG 384-well assay, HRV16, Example X. In kind it is cell-based. As to conditions: Rhinovirus A, 96 h, read-out: EC50 H1-HeLa_HRV 16_HRV-CTG 384-well Assay (per Ex. X). In short, it runs like this:
as §1

The nature of data set [3]: GI S9 stability, rat, Example Y. In kind it is in vitro ADME. Particulars: pooled intestinal S9 fractions; rat intestinal S9, 1.0 mg/mL protein, 2 μM compound, pH 7.4; read-out: GIS9 Rat T½ (per Ex. Y). Here is the method: (§2) Example Y: GI S9 Stability Data
(§3) Stock solutions of test compounds in dimethyl sulfoxide (DMSO) having a final concentration of 10 mM were prepared and used in all experiments. Sekisui XenoTech (Kansas City, KS) provided pooled intestinal S9 fractions. All other chemicals were purchased from Sigma-Aldrich (St. Louis, MO) or VWR (West Chester, PA). Internal Standard/Quench (IS/Q) used to stop reactions was 100 nM labetalol in (by volume) methanol (10%) and acetonitrile (90%).
(§4) Stability in Intestinal S9 Fractions: Duplicate aliquots of test compound or positive control substrate were added to S9 stock diluted with phosphate buffered saline (137 mM NaCl, 2.7 mM KCl, 10 mM phosphate buffer), pH 7.4, to obtain a protein concentration of 1.0 mg/mL. The metabolic reactions were initiated by the addition of the substrates to the S9 reaction mixture to a final concentration of 2 μM. At 0, 10, 20, 30, 60 and 120 min, 25 μL aliquots of the reaction mixture were transferred to plates containing 225 μl of IS/Q solution. After quenching, the plates were centrifuged at 3000×g for 30 minutes. 150 μL aliquots of each supernatant were dried down then reconstituted with 300 μL water. Aliquots (10 μL) of the prepared samples were analyzed on a Thermo Q-Exactive mass spectrometer as described below.
(§5) Liquid Chromatography—Mass Spectrometry: Quantification of test compounds and control substrate was performed by analyte/internal standard peak area ratio (PAR) values measured on a Thermo Q-Exactive mass spectrometer coupled to a Dionex UltiMate 3000 HPLC with a Leap Technologies HTC PAL autosampler. The column used for analysis was a Waters Acquity BEH C18 (1.7 μm particle size, 2.1×50 mm). Mobile phase A consisted of 0.1% (v/v) formic acid in water. Mobile phase B consisted of 0.1% (v/v) formic acid in acetonitrile. Elution of analytes was achieved by a series of linear gradients varying the proportions of A and B. The mass spectrometer was calibrated on a weekly basis and mass tolerance of 5 ppm was used.
(§6) Metabolic stabilities in S9 fractions were determined by measuring the rates of disappearance of test compound and positive control substrate.
(§7) Data (% of substrate remaining) were plotted on a semi-log scale and fitted using an exponential decline model:
(§8) Ct=C0×e^−ln2/T1/2×t • Where Ct—% of substrate remaining at time=t; C0—% of substrate remaining at time=0; t—time; T1/2—half-life. • The Half-life (T1/2) is determined by the following equation: […]
(§9) Assuming a first-order reaction, the slope (k) is extrapolated from the aforementioned plotted data.

Data set [4] in a line: GI S9 stability, dog, Example Y. As to conditions: dog intestinal S9, 1.0 mg/mL protein, 2 μM compound, pH 7.4; for half-life at 2 μM: pooled intestinal S9 fractions, read-out: GIS9 DOG T½ (per Ex. Y). In kind it is in vitro ADME. Here is the method:
as §2, §3, §4, §5, §6, §7, §8, §9

A short description of data set [5]: GI S9 stability, cyno, Example Y. It counts as in vitro ADME. Particulars: cynomolgus monkey, pooled intestinal S9 fractions; cyno intestinal S9, 1.0 mg/mL protein, 2 μM compound, pH 7.4; read-out: GIS9 Cyno T½ (per Ex. Y). The procedure:
as §2, §3, §4, §5, §6, §7, §8, §9

Setting [6] is: H1-HeLa cells, HRV1B MOI 0.5, 4 days, Celltiter-Glo.
Setting [7] is: H1-HeLa cells, HRV16 MOI 0.25, 4 days, Celltiter-Glo.

Molecules are shown by their SMILES. Like-named read-outs stand apart in the source and are kept apart here.

As a reminder, the EC50 is the midpoint of the concentration-response curve. Take `CC[C@H](C)OC(=O)OC[C@@]1(C#N)O[C@@H](c2ccc3c(N)ncnn23)[C@H](O)[C@@H]1O` [Compound 4, ((2R,3S,4R,5S)-5-(4-aminopyrrolo[2,1-f][1,2,4]triazin-7-yl)-2-cyano-3,4-dihydroxytetrahydrofuran-2-yl)methyl ((S)-sec-butyl) carbonate]: the figures for the EC50 in data set [1] (setting [6]) and in data set [2] (setting [7]) were 11.2 µM and 38.6 µM, respectively. The half-life at 2 μM stood at 10 min in data set [3], 462 min in data set [4] and 22 min in data set [5].

As to `COC(=O)OC[C@@]1(C#N)O[C@@H](c2ccc3c(N)ncnn23)[C@H](O)[C@@H]1O` [Compound 6, ((2R,3S,4R,5S)-5-(4-aminopyrrolo[2,1-f][1,2,4]triazin-7-yl)-2-cyano-3,4-dihydroxytetrahydrofuran-2-yl)methyl methyl carbonate], the results for the EC50 in data set [1] (setting [6]) and in data set [2] (setting [7]) were 8.91 µM and 13.7 µM, respectively. The half-life at 2 μM amounted to 37 min in data set [3] and 38 min in data set [5]. Besides, the “GIS9 DOG T½ (per Ex. Y)” value in data set [4] is reported as 789 min.

With `CC(C)COC(=O)OC[C@@]1(C#N)O[C@@H](c2ccc3c(N)ncnn23)[C@H](O)[C@@H]1O` [Compound 8, ((2R,3S,4R,5S)-5-(4-aminopyrrolo[2,1-f][1,2,4]triazin-7-yl)-2-cyano-3,4-dihydroxytetrahydrofuran-2-yl)methyl isobutyl carbonate], the EC50 in data set [1] (setting [6]) was 5.16 µM; in data set [2] (setting [7]) it was 9.82 µM. For the same compound, the half-life at 2 μM in data set [3] is 7 min; in data set [4] it was 311 min; in data set [5] it was 8 min.

With `CCCOC(=O)OC[C@@]1(C#N)O[C@@H](c2ccc3c(N)ncnn23)[C@H](O)[C@@H]1O` [Compound 9, ((2R,3S,4R,5S)-5-(4-aminopyrrolo[2,1-f][1,2,4]triazin-7-yl)-2-cyano-3,4-dihydroxytetrahydrofuran-2-yl)methyl propyl carbonate], the results for the EC50 in data set [1] (setting [6]) and in data set [2] (setting [7]) were 7.57 µM and 10.9 µM, respectively. In addition, the half-life at 2 μM was 8 min in data set [3], 156 min in data set [4] and 19 min in data set [5].

On to `CC[C@@H](C)OC(=O)OC[C@@]1(C#N)O[C@@H](c2ccc3c(N)ncnn23)[C@H](O)[C@@H]1O` [Compound 10, ((2R,3S,4R,5S)-5-(4-aminopyrrolo[2,1-f][1,2,4]triazin-7-yl)-2-cyano-3,4-dihydroxytetrahydrofuran-2-yl)methyl ((R)-sec-butyl) carbonate], for which the EC50 in data set [1] (setting [6]) was 18.1 µM; in data set [2] (setting [7]) it was 36.7 µM. The figures for the half-life at 2 μM in data set [3] and in data set [5] were 13 min and 9 min, respectively. Besides, the “GIS9 DOG T½ (per Ex. Y)” value in data set [4] came out at 789 min.

Take `CC(C)OC(=O)OC[C@@]1(C#N)O[C@@H](c2ccc3c(N)ncnn23)[C@H](O)[C@@H]1O` [Compound 11, ((2R,3S,4R,5S)-5-(4-aminopyrrolo[2,1-f][1,2,4]triazin-7-yl)-2-cyano-3,4-dihydroxytetrahydrofuran-2-yl)methyl isopropyl carbonate]: the results for the EC50 in data set [1] (setting [6]) and in data set [2] (setting [7]) were 12.2 µM and 37.4 µM, respectively. Further, the results for the half-life at 2 μM in data set [3] and in data set [5] were 14 min and 35 min, respectively. Also, the “GIS9 DOG T½ (per Ex. Y)” value in data set [4] was determined as 789 min.

On to `CC(C)(C)OC(=O)OC[C@@]1(C#N)O[C@@H](c2ccc3c(N)ncnn23)[C@H](O)[C@@H]1O` [Compound 13, ((2R,3S,4R,5S)-5-(4-aminopyrrolo[2,1-f][1,2,4]triazin-7-yl)-2-cyano-3,4-dihydroxytetrahydrofuran-2-yl)methyl tert-butyl carbonate], for which the concentration for a half-maximal effect (EC50) in data set [1] (HRV1B, H1-HeLa) is 3.19 µM; in data set [2] (HRV16, H1-HeLa), 7.67 µM. Also, the half-life at 2 μM in data set [3] amounted to 74 min; in data set [4], 96 min; in data set [5] it was 72 min.

Take `CCC(CC)OC(=O)OC[C@@]1(C#N)O[C@@H](c2ccc3c(N)ncnn23)[C@H](O)[C@@H]1O` [Compound 14, ((2R,3S,4R,5S)-5-(4-aminopyrrolo[2,1-f][1,2,4]triazin-7-yl)-2-cyano-3,4-dihydroxytetrahydrofuran-2-yl)methyl pentan-3-yl carbonate]: the EC50 in data set [1] (setting [6]) is 22.9 µM; in data set [2] (setting [7]) it was 50 µM. Also, the figures for the half-life at 2 μM in data set [3], in data set [4] and in data set [5] were 16 min, 534 min and 8 min, respectively.

As to `CC(C)COC(=O)OC[C@@]1(C#N)O[C@@H](c2ccc3c(N)ncnn23)[C@@H]2OC(=O)O[C@@H]21` [Compound 15, ((3aS,4R,6S,6aS)-6-(4-aminopyrrolo[2,1-f][1,2,4]triazin-7-yl)-4-cyano-2-oxotetrahydrofuro[3,4-d][1,3]dioxol-4-yl)methyl isobutyl carbonate], the EC50 turned out to be 7.05 µM in data set [1] (setting [6]) and 9.15 µM in data set [2] (setting [7]). Further, the half-life at 2 μM in data set [3] worked out at 2 min; in data set [4], 12 min; in data set [5], 2 min.

Turning to `N#C[C@]1(COC(=O)O[C@@H]2CCOC2)O[C@@H](c2ccc3c(N)ncnn23)[C@H](O)[C@@H]1O` [Compound 24, ((2R,3S,4R,5S)-5-(4-aminopyrrolo[2,1-f][1,2,4]triazin-7-yl)-2-cyano-3,4-dihydroxytetrahydrofuran-2-yl)methyl ((R)-tetrahydrofuran-3-yl) carbonate], the figures for the EC50 in data set [1] (setting [6]) and in data set [2] (setting [7]) were 6.75 µM and 14.1 µM, respectively. In addition, the values for the half-life at 2 μM in data set [3] and in data set [5] were 47 min and 147 min, respectively. In data set [4], the “GIS9 DOG T½ (per Ex. Y)” value was found to be 789 min.

Consider `N#C[C@]1(COC(=O)O[C@H]2CCOC2)O[C@@H](c2ccc3c(N)ncnn23)[C@H](O)[C@@H]1O` [Compound 33, ((2R,3S,4R,5S)-5-(4-aminopyrrolo[2,1-f][1,2,4]triazin-7-yl)-2-cyano-3,4-dihydroxytetrahydrofuran-2-yl)methyl ((S)-tetrahydrofuran-3-yl) carbonate], for which the EC50 is 8.7 µM in data set [1] (setting [6]) and 18.5 µM in data set [2] (setting [7]). The half-life at 2 μM worked out at 58 min in data set [3] and 163 min in data set [5]. The “GIS9 DOG T½ (per Ex. Y)” value in data set [4] was determined as 789 min.
